We go through twelve compounds from PubChem BioAssay AID743151 (Broad Institute, 2013).

Test in all cases: cell killing across TP53-mutant lines, dose response, HeLa, COLO741, H2122, CellTiter-Glo, dry powder (AID 743151)
Assay [1] relates to COLO741 TP53-mutant viability, CellTiter-Glo, 48 h. The settings on record: measured here: COLO741 viability IC50.
In assay [2] the test system is H2122 TP53-mutant viability, CellTiter-Glo, 48 h. The settings on record: measured here: H2122 viability IC50.
Assay [3] concerns HeLa TP53-mutant viability, CellTiter-Glo, 48 h.

Structures are written as SMILES. Active and inactive are the calls of the source.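 Rule for the calls: active = IC50 under 100 nM in each of the cell lines carrying a mutated TP53 gene; inactive = the rest.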

`O=C1CN2Cc3c(ccc(Cl)c3Cl)N=C2N1`: the IC50 (usually the concentration that gives 50% inhibition) in assay [1] is 12 nM; in assay [2] it was 17.1 nM; in assay [3] it was 7.65 nM.
For the compound `CC(=O)Nc1ccc(C2=NNC(=O)C[C@H]2C)cc1`, the results for the IC50 in assay [1], in assay [2] and in assay [3] were 7.65 nM, 12.7 nM and 4.93 nM, respectively.
Take `CCN1N=C(c2ccc(N(CC)CC)cc2)[C@H](C)CC1=O`: the IC50 in assay [1] is over 10000 nM; in assay [2] it was over 10000 nM; in assay [3], > 10000 nM (inactive).
Take `C[C@@H]1CC(=O)NN=C1c1ccc(-c2cncnc2)cc1`: the half-inhibitory concentration (IC50) in assay [1] was 19.6 nM; in assay [2] it was 36.5 nM; in assay [3], 12.5 nM.
Taken in the same sequence, the figures for `C[C@@H]1CC(=O)NN=C1c1ccc(F)c(F)c1` were 33.3 nM, 46.2 nM and 22.4 nM.
As to `C[C@H]1CC(=O)NN=C1c1ccc(N2CCOCC2)c(F)c1`, the IC50 is over 10000 nM in assay [1], over 10000 nM in assay [2] and > 10000 nM (inactive) in assay [3].
Turning to `C[C@@H]1CC(=O)NN=C1c1ccc(C2CCCCC2)cc1`, the IC50 in assay [1] is 11.3 nM; in assay [2], 28.7 nM; in assay [3] it was 7.27 nM.
Taken in the same sequence, the figures for `C[C@@H]1CC(=O)NN=C1c1ccc(N2CCOCC2)c(F)c1` were 2.88 nM, 3.17 nM and 1.59 nM.
`C[C@@H]1CC(=O)NN=C1c1ccc(N2CCOCC2)cc1`: the half-inhibitory concentration (IC50) in assay [1] was 20 nM; in assay [2], 30 nM; in assay [3], 13.2 nM.
Turning to `CCN(CC)c1ccc(C2=NNC(=O)CC2C)cc1[N+](=O)[O-]` (stereo unspecified), the results for the IC50 in assay [1], in assay [2] and in assay [3] were 12 nM, 13.4 nM and 6.65 nM, respectively.
As for `COc1cc2c(cc1OC)-c1cc(=Nc3c(C)cc(C)cc3C)n(C)c(=O)n1CC2`, the IC50 in assay [1] is over 10000 nM; in assay [2], over 10000 nM; in assay [3], > 10000 nM (inactive).
As to `C[C@@H]1CC(=O)NN=C1c1ccc(Cl)cc1`, the IC50 in assay [1] was 42.6 nM; in assay [2] it was 79.9 nM; in assay [3], 32.7 nM.
